In a melting point compilation (Tetko et al.; mined from patent text by program, amines drawn as free bases though some values may be those of a salt):

Row | SMILES | melting point
1 | O=C(O)Cc1ccc2c(c1)C(=O)c1ccccc1CN2 | 132 to 143 °C
2 | c1ccc(NCCN2CCN(c3cccc4[nH]ccc34)CC2)nc1 | 153 to 160 °C
3 | COc1cc(COc2nn(-c3ccccc3)cc2/C=C/S(C)=O)ccc1OCc1nc(-c2ccco2)oc1C (stereo not drawn) | 156 to 157 °C
4 | CCn1c(C)nc2cc(S(C)(=O)=O)c(Cl)c([N+](=O)[O-])c21 | 75 to 79 °C
5 | CCCN1C(=O)N2CC(Cc3ccccc3)N=C2c2[nH]c(C(C)OCC)nc21 (stereo not drawn) | 165 to 170 °C
6 | CN1c2cc(Cl)ccc2-c2nc3ccc(Cl)cc3c3cccc1c23 | 273 to 275 °C
7 | CCOC(=O)C=Cc1cc(-c2csc(-c3ccc(OCC)c(OCC)c3)n2)cc(C(=O)OCOC)c1OCOC | 94 to 96 °C
8 | Cc1cc(=O)c2ccccc2s1 | 70 °C
9 | Cc1ccc(C2OC(=O)NC2=O)s1 (stereo not drawn) | 108 to 109 °C
10 | CC(=O)OCCOC(=O)C1=C(C)NC(C)=C([N+](=O)[O-])C1c1ccccc1Cl (stereo not drawn) | 158 to 160 °C
11 | COc1ccc(C2=NN(Cc3ccc([N+](=O)[O-])cc3)C(=O)CC2)cc1OC | 126 °C
12 | COc1ccc(-c2c3nn(-c4ccc(OC)cc4)c(=O)c-3c[nH]c2C)cc1 | 274 to 282 °C
13 | CC1=C(Br)C=CC(Cl)(C=NO)C1 (stereo not drawn) | 77 to 78 °C
14 | O=C(O)Cc1ccc(OCc2ccc(Cl)cc2C(=O)O)cc1 | 205 to 208 °C
15 | Cc1ccc(C2OCC(C)(CO)CO2)cc1 (stereo not drawn) | 104 to 106 °C
16 | CNC(=O)N(O)Cc1ccc2c(c1)OCc1ccccc1C2=O | 155 to 157 °C
17 | CCn1cc(C(=O)O)c(=O)c2cc(F)c(N3CCN(C)C(c4sc5ccccc5c4C)C3)cc21 (stereo not drawn) | 253 to 254 °C
18 | O=[N+]([O-])c1ccc2[nH]c(-c3ccccc3)cc2c1 | 199 to 200 °C
19 | CC1CC(=O)NN=C1c1ccc2c(c1)OCC(=O)N2 (stereo not drawn) | > 300 °C
20 | CC(C)N(CC(O)CC(c1ccccc1)c1ccccc1)C(C)C (stereo not drawn) | 55 to 59 °C
21 | ClCc1coc(Cc2ccccc2)n1 | 31 to 32 °C
22 | CCCCc1nc(Sc2ccccc2)c(C(=O)OCC)[nH]1 | 74 °C
23 | CCCCC(=O)Nc1ccc(N)cc1Cl | 96.5 to 99 °C
24 | CC(=O)NC1CCc2cc3c(cc21)CCC3 (stereo not drawn) | 257 to 259 °C
25 | O=C(O)CCCCc1cc(O)c(O)cc1[N+](=O)[O-] | 111 to 114 °C
26 | Cc1nc(Nc2ccccc2)sc1-c1cccnc1 | 178 to 180 °C
27 | COC1(c2cc(F)cc(OCc3ccc4c(c3)C(=O)N(C)S4(=O)=O)c2)CCOCC1 | 155 to 156 °C

Row | SMILES | melting point
28 | CCc1cc2c(s1)SCCc1cc(=O)n(-c3ccc(Cl)cc3)nc1-2 | 127 to 128 °C
29 | COc1ccc(C(=O)CNc2ccccc2)cc1 | 105 to 106 °C
30 | CCNC(=O)NCc1cccc2c1C(=O)N(C1(C)CCC(=O)NC1=O)C2=O (stereo not drawn) | 220 to 222 °C
31 | CSc1nsc(NC(=O)C(C)(C)C)c1C#N | 177 to 178 °C
32 | CC(CCl)=NNC1=Nc2ccc(Cl)cc2C(c2ccccc2)=NC1 | 210 to 227 °C
33 | O=C1c2c(c(=O)n3nc(-c4ccccc4)cc3n2Cc2ccccc2)CN1c1ccccc1 | 271 to 272 °C
34 | CC(=O)Nc1ccc(OCC(O)CNC(C)(C)C)c(-c2nnco2)c1 (stereo not drawn) | 157 to 160 °C
35 | CCCCCc1ccc(C(=O)Oc2ccc(C#N)c(F)c2F)cc1 | 33 °C
36 | Cc1cccc2c(=O)n3c(nc12)C(=O)c1cc(F)ccc1-3 | 255 to 257 °C
37 | CC(C)(C)OC(=O)N1CCN(C(=O)C2CCN(C(=O)OCc3ccccc3)C2)CC1 (stereo not drawn) | 70 to 74 °C
38 | CCCCNC(=O)NC(Cc1ccccc1)C(=O)Nc1c(F)cc(F)cc1F (stereo not drawn) | 217 to 218 °C
39 | Nc1ccc2c(c1)c(=O)oc1cccc(O)c12 | > 260 °C
40 | CCCCCCCCCCCCCCP(=O)(OC)OC | 32 to 33 °C
41 | Cc1nnc(C=Cc2ccccc2OCC(O)CNC(C)(C)C)s1 (stereo not drawn) | 110 to 112 °C
42 | CCCC1=C(C(=O)OCC)C(c2c(F)cccc2F)c2c[nH]nc2N1 (stereo not drawn) | 185 °C
43 | Cc1ccccc1NC(=O)CN1C[C@@H](C)N(S(=O)(=O)c2cccc([N+](=O)[O-])c2)[C@@H](C)C1 | 163 to 164 °C
44 | COc1ccc(Nc2c([N+](=O)[O-])cc([N+](=O)[O-])c(Cl)c2C(=O)O)cc1 | 241 to 245 °C
45 | CC(=O)NCCC1CCc2ccc(O)cc21 (stereo not drawn) | 107 to 108 °C
46 | COc1cc(O)cc2oc(=O)cc(C)c12 | 261 to 263 °C
47 | CCCc1c(O)ccc2c1OC(C)(CCC(N)=O)CC2=O (stereo not drawn) | 108 to 115 °C
48 | O=NN(CCCl)C(=O)NCc1ccccn1 | 70 °C
49 | Cc1cc(Oc2ccc(S(C)(=O)=O)nc2)ccc1[N+](=O)[O-] | 138 to 140 °C
50 | CNC(=NCCn1cc(Cn2ccnc2)c2ccccc21)NC#N | 172 to 173 °C
51 | Clc1cc2c(nn1)CCCCC2 | 74 to 75 °C
52 | COc1ccc2c(c1)Cc1cc(CCC(C)=O)ccc1-2 | 100 to 101 °C
53 | c1cc2cc(N3CCOCC3)ccc2s1 | 127 to 132 °C
